In patent US20100310553A1, “Compositions and Methods for Controlling Hepatitis C Virus Infection” (priority 2006, published 2010):

Experiments:
apoE = apoE in media of HCV-infected Huh7.5 cells treated with inhibitor, Western blotting; assay type: cell-based; conditions: 4 days
Description: (§1) With reference to FIGS. 14A-14F, studies were carried out to determine the effects of an MTP inhibitor, CP-346086, on lipoprotein production/secretion and HCV production. […] To determine the effect of CP-346086 on HCV production, Huh7.5 cells were infected with HCV at 37° C. for 2 hr and then incubated with varying concentrations of CP-346086 for 4 days. The levels of apoB and apoE in the media were determined by Western blotting. […] The levels of HCV virions released into the media were initially determined by infectivity assay in cell culture. The naïve Huh7.5 cells were infected with HCV-containing media. At 3 days p.i., the levels of HCV NS3 protein and positive-stranded RNA were quantified by Western blotting and RPA, respectively. […] Similarly, CP-346086 lowered the infectious HCV titers by 1, 2, 3, and 4 orders of magnitude (10, 100, 1,000, and 10,000 times) at concentrations of 6.25, 12.5, 25, and 50 μM, respectively, as illustrated in FIG. 14E.

[1] = test system: subgenomic HCV replicon of genotype 2a; assay: HCV RNA replication in Huh7.5 cells harboring a subgenomic HCV replicon of genotype 2a; assay type: cell-based, Hepatitis C virus; conditions: subgenomic replicon genotype 2a, RPA
[2] = test system: apoB and triglyceride secretion; conditions: HepG2 cells; cited from earlier work
apoB = apoB in media of HCV-infected Huh7.5 cells treated with inhibitor, Western blotting; assay type: cell-based; conditions: 1 μM; 4 days
Description: as §1

HCV [3] = assay: HCV production: infectivity of media of CP-346086-treated, HCV-infected Huh7.5 cells on naive Huh7.5 cells; assay type: cell-based, Hepatitis C virus
Description: as §1

HCV [4] = assay: HCV production after treatment of HCV-infected cells with commercial inhibitors of lipoprotein assembly and secretion, RPA; assay type: cell-based, Hepatitis C virus; conditions: increasing concentrations; positive-strand HCV RNA by RPA, 3 days p.i.
Description: These inhibitors were used to treat HCV-infected cells. The culture supernatants were then used to infect naïve Huh7.5 cells. At 3 days p.i., the levels of positive-strand HCV RNA were determined by RPA.

HCV [5] = assay: HCV infection of Huh7.5 cells in the presence of apoE3 or apoC-I protein; assay type: cell-based, Hepatitis C virus; conditions: increasing concentrations (μg/ml); RPA
Description: With reference to FIGS. 16A and 16B, the effect of recombinant apolipoprotein E3 (apoE3) and purified apoC-I on HCV infection was investigated. Huh7.5 cells were infected with HCV in the presence of increasing concentrations (μg/ml) of apoE3 or apoC-I, as indicated on the top of the figures. At 3-hr p.i., the HCV-infected cells were washed with 1×PBS twice and were incubated with medium for 3 days. With reference to FIG. 16A, the levels of HCV NS3 protein in the cells infected with HCV in the presence of apoE3 were then determined by Western blot analysis using an NS3-specific monoclonal antibody and a cellular beta-actin protein as an internal control. With reference to FIG. 16B, HCV positive-strand RNA in the cells infected with HCV in the presence of apoC-I were quantified by RPA.

O=C(Nc1ccc2c(c1)CCN(Cc1ncn[nH]1)C2)c1ccccc1-c1ccc(C(F)(F)F)cc1 [CP-346086]
concentration up to which apoE secretion was not reduced (apoE): above 3 μM
HCV RNA replication [1]: no significant effect
IC50 [2]: 2.6 nM
apoB secretion (apoB): almost completely blocked
lowering of infectious HCV titers (HCV [3]; 6.25 μM): 10 times
lowering of infectious HCV titers (HCV [3]; 12.5 μM): 100 times
lowering of infectious HCV titers (HCV [3]; 25 μM): 1,000 times
lowering of infectious HCV titers (HCV [3]; 50 μM): 10,000 times
reduction of HCV positive-stranded RNA level (HCV [3]; 50 μM, 3 days p.i., RPA): > 95%
reduction of HCV NS3 protein level (HCV [3]; 50 μM, 3 days p.i., Western blotting): > 95%

COc1ccc(Cl)cc1C(=O)NCCc1ccc(S(=O)(=O)NC(=O)NC2CCCCC2)cc1 [glybenclamide]
levels of HCV virion production (HCV [4]): significantly decreased

COc1ccc([C@@H]2CC(=O)c3c(O)cc(O)cc3O2)cc1O [hesperetin]
levels of HCV virion production (HCV [4]): significantly decreased

O=c1c(O)c(-c2ccc(O)c(O)c2)oc2cc(O)cc(O)c12 [quercetin]
levels of HCV virion production (HCV [4]): significantly decreased

ApoC-I: purified apoC-I protein (TPDVSSALDKLKEFGNTLEDKARELISRIKQSELSAKMREWFSETFQKVKEKLKIDS; UniProt P02654 27-83, looked up)
inhibition of HCV infection (HCV positive-strand RNA) (HCV [5]): inhibited HCV infection in a dose-dependent manner
